Assay results taken from patent publication US4002615A, “Terpenoid compounds of substituted hydroxyalkyl-pyridines having juvenile hormone activity” (A/S Cheminova, priority 1974, dated 1977).
≈ marks a conversion by molar mass, not a printed value.

Legend:
Assay type in all cases: in vivo
[1] = system: Culex pipiens L.; assay: Culex test (mature larvae, loss of 50% of test animals); settings: concentration producing loss of 50% of test animals, mixtures of isomers, read-out: IC-50 eclos.
Experimental: (§1) The biological tests are examplified by tests on Tenebrio molitor L, Galleria mellonella L. and Culex pipiens L.
The compounds are tested on mature larvae. The concentration (IC-50 eclos.) is given in ppm.

[2] = system: Tenebrio molitor L; assay: Tenebrio test (topical application to pupae, inhibition of adult characters); settings: topical in acetone to abdomen of 0.5 to 2 hours old pupae; 27° C, 70% RH; mixtures of isomers
Experimental: as §1
The material in question is applied topically to the abdomen of 0.5 to 2 hours old pupae of the said species, as a solution in acetone. The pupae are held at 27° C and 70% RH, ecdysis occuring 5 to 7 days later. The degree of inhibition of adult characters is referred to an arbitrary scale, where a morphologically perfect adult is given the character 0%, and a perfect second pupae 100%.

[3] = system: Galleria mellonella L.; assay: Galleria test (eggs on impregnated filter paper, prevention of eclosion); settings: amount preventing eclosion of 50% of the eggs, mixtures of isomers
Experimental: as §1
The test is performed on eggs deposited on impregnated filter paper by the mother moth. The data given in table 2, are the amount necessary for preventing eclosion of 50% of the eggs. The amount (IC-50 eclos.) is given in mg./65 cm^2.

Question: How did the LC50 [1] turn out when `CC(C)=CCCC(C)=CCOCc1ccccn1` [Compound 1, 3,7-dimethyl-2,6-octadien-1-yl-(2-pyridyl)methylether] was run?
Answer: 5 µg/mL (≈ 20.4 µM)

Question: For `CC(C)=CCCC(C)=CCOCc1ccncc1` [Compound 3, 3,7-dimethyl-2,6-octadien-1-yl-(4-pyridyl)methylether], which LC50 [1] is on record?
Answer: > 10 µg/mL

Question: With `CC(=CCOCc1ccccn1)CCC1OC1(C)C` (stereo not shown) [Compound 4, 6,7-epoxy-3,7-dimethyl-2-octen-1-yl-(2-pyridyl)methylether] as the molecule, how does the LC50 [1] read?
Answer: 9 µg/mL (≈ 34.4 µM)

Question: `CCc1ccc(COCC=C(C)CCC2OC2(C)C)nc1` (stereo not shown) [Compound 6, 6,7-epoxy-3,7-dimethyl-2-octen-1-yl-(5-ethyl-2-pyridyl)methylether] was tested. Which LC50 [1] did it give?
Answer: 0.005 µg/mL (≈ 0.0173 µM)

Question: `CC(C)=CCCC(C)=CCOCc1cccc(C)n1` [Compound 8, 3,7-dimethyl-2,6-octadien-1-yl-(6-methyl-2-pyridyl)methylether] was tested. Which ID-50 morph. [2] did it give?
Answer: 4 μg/pupa

Question: And the LC50 [1]?
Answer: 10 µg/mL (≈ 38.6 µM)

Question: What about the IC-50 eclos. [3] of the same molecule?
Answer: > 10 mg/65 cm^2
